Patent publication US9321764B2, “Dihydro-pyrrolopyridinone inhibitors” (AbbVie Inc., priority 2013, dated 2016)
pEC50, pKi: −log10 of the molar value. Marks after values point to notes of the source that are not given here.

How the values were obtained:
[1] = molecular target: T1, BRD4 (BDI_K57-E168) (Homo sapiens, UniProt O60885); assay: TR-FRET bromodomain binding assay, first bromodomain of BRD4; settings: His-tagged BD1, 100 nM Alexa647 probe; TR-FRET protocol A-E given per row
T1 construct: BD1: amino acids K57-E168; made in house
Procedure, shortened: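 Ki values come from IC50s (4-parameter logistic) corrected for probe Kd and concentration, normalised to no-compound and 1 μM unlabelled probe controls. Probe displacement by TR-FRET used 8 nM BD1 (K57-E168), 100 nM Alexa647 probe, 1 nM Eu-anti-His, 20 mM phosphate pH 6.0, 2% DMSO, 1 h, room temperature.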

[2] = tested on: breast cancer cell line MX-1; assay: MX-1 cell line proliferation assay; type: cell-based; settings: Homo sapiens, MX1, 72 h, MX-1 cells, 3-day proliferation assay, Cell Titer Glo; read-out: Cellular proliferation EC50
Procedure, shortened: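 Final compound concentrations spanned 0.0001 to 3 μM, added to 5000 cells/well plated the previous night in RPMI 1640 plus 10% FBS at 37 °C.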

[3] = tested on: LPS induced IL-6 production; assay: LPS (lipopolysaccharide) induced IL-6 production mouse assay; type: in vivo; settings: read-out: Inhibition of LPS induced IL-6 production, % inhibition at 3 mg/kg, 3 mg/kg oral, one hour before LPS 2.5 mg/kg i.p., serum IL-6 2 hours after LPS, SCID female mice, all p < 0.05
Protocol: Compounds of the Examples listed in Table 2 were assayed for their ability to inhibit LPS (lipopolysaccharide) induced IL-6 (Interleukin-6) production in mice. Fox Chase SCID® female mice (Charles Rivers Labs, 5 per group) received an intraperitoneal challenge of lipopolysaccharide (2.5 mg/kg, L2630 E. coli 0111:B4) one hour after oral administration of compounds. Mice were euthanized 2 hours after lipopolysaccharide injection, blood was removed by cardiac puncture, and then the serum harvested from the blood samples was frozen at −80° C. On the day of the assay the serum samples were brought to room temperature and then diluted 1:20 in phosphate-buffered saline containing 2% bovine serum albumin. Interleukin-6 measurements were performed using a cytokine assay from Meso Scale Discovery (Gaithersburg, Md.) for mouse serum analysis according to the manufacturer's protocol and read on a SECTOR Imager 6000 (Meso Scale Discovery, Gaithersburg, Md.) instrument. Statistical analysis was performed using Prism software (version 5.0) incorporating Dunnett's one way ANOVA. The IL-6 mean and standard deviation of the group of vehicle treated animals were compared with the IL-6 mean and standard deviation of the group treated with drug. A p value <0.05 means that there is less than a 5% probability that the mean values in the two groups are equal.

[4] = molecular target: T2, BRD4 (BDII_E352-M457) (Homo sapiens, UniProt O60885); assay: TR-FRET bromodomain binding assay, second bromodomain of BRD4; settings: His-tagged BD2, 30 nM Alexa647 probe; TR-FRET protocol A-E given per row
T2 construct: proliferation; Protocol; made in house
Procedure, shortened: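 His-tagged BRD4 BD2 ([…]) competed against an Alexa647-labelled BET-inhibitor probe in TR-FRET. Buffer was 20 mM sodium phosphate pH 6.0, 50 mM NaCl, 1 mM EDTA, 0.01% Triton X-100, 1 mM DTT, with method D DMSO series of 2.5 mM–800 nM (stock range). IC50 from 4-parameter fit, Ki from probe Kd and concentration.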

[5] = tested on: OPM-2 xenograft tumors; assay: Xenograft tumor growth inhibition assay (OPM-2); type: in vivo, mice; settings: QDx21; for % TGI: OPM-2 xenograft, SCID-beige mice; for % removed from study: removed due to morbidity or weight loss in excess of 20%
Protocol: The effect of compounds of the examples to inhibit the growth of OPM-2 xenograft tumors implanted in mice was evaluated. A suspension of cancer cells (5×10^6 per 0.1 mL) prepared in RPMI culture medium (Invitrogen, Carlsbad, Calif.) was diluted 1:1 with a solution of Matrigel™ (BD Biosciences, Franklin Lakes, N.J.) and inoculated subcutaneously into the right hind flank of female SCID-beige (Charles River Labs) mice. Randomization into treatment and vehicle control groups (10/group) occurred when the mean tumor volume reached approximately 250 mm^3 Compounds were formulated in 10% EtOH, 30% PEG 400, 60% Phosol 53 MCT. Administration of compound or vehicle was initiated on the day following randomization and continued for 21 days.

Row | Compound | pKi [1] | pEC50 [2] | inhibition in vivo at 3 mg/kg [3] | pKi [4] | % TGI ([5]; 10 mg/kg PO) | % removed from study ([5]; 10 mg/kg PO) | % TGI ([5]; 30 mg/kg PO) | % removed from study ([5]; 30 mg/kg PO) | % TGI ([5]; 1 mg/kg PO) | % removed from study ([5]; 1 mg/kg PO) | % TGI ([5]; 3 mg/kg PO) | % removed from study ([5]; 3 mg/kg PO)
1 | Cn1cc(-c2cc(NS(C)(=O)=O)ccc2Oc2ccc(C#N)cc2)c2cc[nH]c(=O)c21 [Example 16, N-[4-(4-cyanophenoxy)-3-(1-methyl-7-oxo-6,7-dihydro-1H-pyrrolo[2,3-c]pyridin-3-yl)phenyl]methanesulfonamide] | 8.68 | 7.23 | 69% | 7.57 | – | – | – | – | – | – | – | –
2 | Cn1cc(-c2cc(S(C)(=O)=O)ccc2OCCC2CC2)c2cc[nH]c(=O)c21 [Example 32, 3-[2-(2-cyclopropylethoxy)-5-(methylsulfonyl)phenyl]-1-methyl-1,6-dihydro-7H-pyrrolo[2,3-c]pyridin-7-one] | 8.21 | 6.90 | 33% | 7.96 | – | – | – | – | – | – | – | –
3 | Cn1cc(-c2cc(S(C)(=O)=O)ccc2Oc2ccc(F)cc2F)c2cc[nH]c(=O)c21 [Example 17, 3-[2-(2,4-difluorophenoxy)-5-(methylsulfonyl)phenyl]-1-methyl-1,6-dihydro-7H-pyrrolo[2,3-c]pyridin-7-one] | 7.47 | 6.97 | 49% | 7.42 | 60*** % | 10% | 64*** % | 10% | – | – | – | –
4 | Cn1cc(-c2cc(CS(C)(=O)=O)ccc2Oc2ccc(F)cc2F)c2cc[nH]c(=O)c21 [Example 52, 3-{2-(2,4-difluorophenoxy)-5-[(methylsulfonyl)methyl]phenyl}-1-methyl-1,6-dihydro-7H-pyrrolo[2,3-c]pyridin-7-one] | 8.34 | – | 77% | 8.15 | – | – | – | – | 13% | 0% | 16% | 10%
5 | Cn1cc(-c2cc(NS(C)(=O)=O)c(F)cc2Oc2ccc(F)cc2F)c2cc[nH]c(=O)c21 [Example 11, N-[4-(2,4-difluorophenoxy)-2-fluoro-5-(1-methyl-7-oxo-6,7-dihydro-1H-pyrrolo[2,3-c]pyridin-3-yl)phenyl]methanesulfonamide] | 8.05 | 7.43 | 66% | 7.51 | – | – | – | – | – | – | – | –
